Each structure is given as a SMILES string. Starred links: 1 amine or outer side, 2 acyl side, 3 side chain; linkers in the order of their positions; H or OH if unused. Positions of bridges follow the written chain, without caps; N, C: chain ends. Non-standard residues stand in square brackets, D forms with d. Residues, ends and D or L forms follow the SMILES beside them. Groups on a side chain read outwards from the residue. *: point of attachment. Me3N+CH2CH2(OCH2CH2)4CO = C[N+](C)(C)CCOCCOCCOCCOCCC(=O)*; Me3N+(CH2)2O(CH2)2O(CH2)2CO = C[N+](C)(C)CCOCCOCCC(=O)*; CH2CH2OCH2CH2OCH2CH2NMe3+ = C[N+](C)(C)CCOCCOCC*; Trp(7-Me) = Cc1cccc2c(C[C@H](N)C(=O)O)c[nH]c12; Hexanoyl(6-NMe3+) = C[N+](C)(C)CCCCCC(=O)*; X1 = CN(CC[C@H](N[*:1])C(=O)[*:2])[*:3]; CH2CH2OCH2CH2NMe3+ = C[N+](C)(C)CCOCC*; γGlu = O=C(O)[C@H](CCC(=O)[*:2])N[*:1]; 2Nal = N[C@@H](Cc1ccc2ccccc2c1)C(=O)O; AEF = NCCOc1ccc(C[C@H](N)C(=O)O)cc1; X24 = C[N+](C)(CCN[*:1])CC(=O)[*:2]; PEG6 = NCCOCCOCCOCCOCCOCCOCCC(=O)O; 3Pal = N[C@@H](Cc1cccnc1)C(=O)O; Myristoyl = CCCCCCCCCCCCCC(=O)*; Lys(Me) = CNCCCC[C@H](N)C(=O)O; X7 = COCCOCCOCCOCCOCCOCCC(=O)*; NMeK = CN[C@@H](CCCCN)C(=O)O; Pen = CC(C)(S)[C@H](N)C(=O)O; Lauroyl = CCCCCCCCCCCC(=O)*; Thp = NC1(C(=O)O)CCOCC1; Dap = NC[C@H](N)C(=O)O; X3 = C[N+](C)(C)CCCCC*; AEEA = NCCOCCOCC(=O)O; Me2NCH2CH2 = CN(C)CC*; Sar = CNCC(=O)O

Data on eight compounds can be found in patent publication US20260022143A1, “Cyclic Peptide Inhibitors of IL-23” (JANSSEN PHARMACEUTICA NV, priority 2022, published 2026).

One series deals with T1, IL-23R (Homo sapiens, UniProt Q5VWK5).
T1 construct: host or cells: HEK293
T1 sequence (Q5VWK5 24-629): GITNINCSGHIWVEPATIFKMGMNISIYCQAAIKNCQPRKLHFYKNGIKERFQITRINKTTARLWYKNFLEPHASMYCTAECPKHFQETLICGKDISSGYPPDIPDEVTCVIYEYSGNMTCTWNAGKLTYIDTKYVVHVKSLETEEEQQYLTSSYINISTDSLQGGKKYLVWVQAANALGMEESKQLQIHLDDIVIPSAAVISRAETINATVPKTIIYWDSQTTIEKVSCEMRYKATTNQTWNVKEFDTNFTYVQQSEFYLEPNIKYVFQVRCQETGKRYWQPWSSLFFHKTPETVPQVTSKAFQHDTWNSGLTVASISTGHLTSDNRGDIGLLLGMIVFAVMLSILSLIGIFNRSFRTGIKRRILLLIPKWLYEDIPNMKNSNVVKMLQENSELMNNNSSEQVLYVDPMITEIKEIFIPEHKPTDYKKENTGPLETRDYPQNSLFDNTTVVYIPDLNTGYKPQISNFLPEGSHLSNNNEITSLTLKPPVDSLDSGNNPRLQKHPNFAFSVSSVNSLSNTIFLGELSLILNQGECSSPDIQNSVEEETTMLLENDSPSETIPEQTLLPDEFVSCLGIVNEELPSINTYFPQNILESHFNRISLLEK
Description: IL23R Reporter Assay. It counts as cell-based. Conditions: HEK293 cells containing IL-23R, IL-12RP1 and STAT-inducible firefly luciferase reporter; 10 ng/mL IL-23 (EC90); 5 h at 37° C.; read-out: IL23R Reporter Assay. On the technique in general: Reporter assays use an easily measured gene product as a stand-in for the process of interest.

Series [1] can be described thus: Exposed Polar Surface Area (EPSA). The conditions noted are these: SFC on Chirex 3014 column; sample 1 mM DMSO stock; read-out: EPSA. In kind it is physicochemical. A digest of the protocol: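 Polarity descriptor in Å² derived from retention time using 8 calibration standards re-run every 20 compounds. Duplicate injections of 1 mM DMSO stock; linear 5–60% modifier gradient (20 mM ammonium formate in MeOH) with CO2 at 4 mL/min, 35 °C, on a Chirex 3014 column.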

Consider `CC(=O)N(C)CCCC[C@@H]1NC(=O)[C@H](Cc2c[nH]c3c(C)cccc23)NC(=O)[C@H]([C@@H](C)O)NC(=O)[C@H](CC(=O)N(C)C)NC(=O)[C@@H](NC(=O)CCOCCOCC[N+](C)(C)C)C(C)(C)SSC(C)(C)[C@@H](C(=O)N[C@@H](Cc2ccc(OCCOCC[N+](C)(C)C)cc2)C(=O)N[C@@H](Cc2ccc3ccccc3c2)C(=O)NC2(C(=O)N[C@@H](CCCCN(C)C(C)=O)C(=O)N[C@@H](CC(N)=O)C(=O)N[C@@H](Cc3cccnc3)C(=O)N(C)CC(=O)N(C)C)CCOCC2)NC1=O` [compound 199, cPEG3aCO-Pen(3)-N(N(Me)2)-T-7MeW-K(NMeAc)-Pen(3)-APEG2F-2Nal-THP-K(NMeAc)-N-3Pya-Sar-CON(Me)2] ({Me3N+(CH2)2O(CH2)2O(CH2)2CO}-[Pen]D(NMe2)T[Trp(7-Me)][Lys(Me)](Ac)[Pen]Y(CH2CH2OCH2CH2NMe3+)[2Nal][Thp][Lys(Me)](Ac)N[3Pal][Sar]-NMe2; disulfide 1-6), for which the IC50 on IL-23R was found to be 3 nM. In addition, the EPSA in series [1] is 141 A^2.
The like results for `CC(=O)N[C@@H]1C(=O)N[C@@H](CC(=O)N(C)C)C(=O)N[C@@H]([C@@H](C)O)C(=O)N[C@@H](Cc2c[nH]c3c(C)cccc23)C(=O)N[C@@H](CCCCN(C)C(C)=O)C(=O)N[C@H](C(=O)N[C@@H](Cc2ccc(OCCOCCOCC[N+](C)(C)C)cc2)C(=O)N[C@@H](Cc2ccc3ccccc3c2)C(=O)NC2(C(=O)N[C@@H](CCCCN(C)C(C)=O)C(=O)N[C@@H](CC(N)=O)C(=O)N[C@@H](Cc3cccnc3)C(=O)N(C)CC(=O)N(C)C)CCOCC2)C(C)(C)SSC1(C)C` [compound 183, MeCO-Pen(3)-N(N(Me)2)-T-7MeW-K(NMeAc)-Pen(3)-APEG3F-2Nal-THP-K(NMeAc)-N-3Pya-Sar-CON(Me)2] (Ac-[Pen]D(NMe2)T[Trp(7-Me)][Lys(Me)](Ac)[Pen]Y(CH2CH2OCH2CH2OCH2CH2NMe3+)[2Nal][Thp][Lys(Me)](Ac)N[3Pal][Sar]-NMe2; disulfide 1-6) were, in that order, 1.8 nM and 133 A^2.
Regarding `CCCCCCCCCCCCCC(=O)N[C@@H](CCC(=O)NCCOCCOCCOCCOCCOCCOCCC(=O)NCCOCCOCC(=O)NCCCC[C@@H](C(N)=O)N(C)C(=O)[C@H](Cc1cccnc1)NC(=O)[C@H](CC(N)=O)NC(=O)[C@H](CCCCN(C)C(C)=O)NC(=O)C1(NC(=O)[C@H](Cc2ccc3ccccc3c2)NC(=O)[C@H](Cc2ccc(OCCCCC[N+](C)(C)C)cc2)NC(=O)[C@H]2NC(=O)[C@H](CCCCNC(C)=O)NC(=O)[C@H](Cc3c[nH]c4c(C)cccc34)NC(=O)[C@H]([C@@H](C)O)NC(=O)[C@H](CC(=O)N(C)C)NC(=O)[C@@H](NC(=O)CCOCCOCC[N+](C)(C)C)C(C)(C)SSC2(C)C)CCOCC1)C(=O)O` [compound 361, cPEG3aCO-Pen(3)-N(N(Me)2)-T-7MeW-K(Ac)-Pen(3)-TMAPF-2Nal-THP-K(NMeac)-N-3Pya-NMeK(PEG2PEG6gEC14)-CONH2] ({Me3N+(CH2)2O(CH2)2O(CH2)2CO}-[Pen]D(NMe2)T[Trp(7-Me)]K(Ac)[Pen]Y(X3)[2Nal][Thp][Lys(Me)](Ac)N[3Pal][NMeK]([AEEA-PEG6-γGlu-Myristoyl])-NH2; disulfide 1-6), the IC50 on IL-23R worked out at 12 nM. For the same compound, in series [1], the EPSA came out at 168 A^2.
The corresponding values for `CCCCCCCCCCCC(=O)N[C@@H](CCC(=O)NCCOCCOCC(=O)NCCOCCOCC(=O)NCCCC[C@H](NC(=O)C1(NC(=O)[C@H](Cc2ccc3ccccc3c2)NC(=O)[C@H](Cc2ccc(OCCCCC[N+](C)(C)C)cc2)NC(=O)[C@H]2NC(=O)[C@H](CCCCN(C)C(C)=O)NC(=O)[C@H](Cc3c[nH]c4c(C)cccc34)NC(=O)[C@H]([C@@H](C)O)NC(=O)[C@H](CC(=O)N(C)C)NC(=O)[C@@H](NC(=O)CCOCCOCC[N+](C)(C)C)C(C)(C)SSC2(C)C)CCOCC1)C(=O)N[C@@H](CC(N)=O)C(=O)N[C@@H](Cc1cccnc1)C(=O)N(C)CC(=O)N(C)C)C(=O)O` [compound 401, cPEG3aCO-Pen(3)-N(N(Me)2)-T-7MeW-K(NMeAc)-Pen(3)-TMAPF-2Nal-THP-K(PEG2PEG2gEC12)-N-3Pya-Sar-CON(Me)2] ({Me3N+(CH2)2O(CH2)2O(CH2)2CO}-[Pen]D(NMe2)T[Trp(7-Me)][Lys(Me)](Ac)[Pen]Y(X3)[2Nal][Thp]K([AEEA-AEEA-γGlu-Lauroyl])N[3Pal][Sar]-NMe2; disulfide 1-6) are 5.9 nM and 155 A^2.
The corresponding values for `CC(=O)NCCCC[C@@H]1NC(=O)[C@H](Cc2c[nH]c3c(C)cccc23)NC(=O)[C@H]([C@@H](C)O)NC(=O)[C@H](CC(N)=O)NC(=O)[C@@H](NC(=O)CCCCC[N+](C)(C)C)C(C)(C)SSC(C)(C)[C@@H](C(=O)N[C@@H](Cc2ccc(OCCN(C)C)cc2)C(=O)N[C@@H](Cc2ccc3ccccc3c2)C(=O)NC2(C(=O)N[C@@H](CNC(C)=O)C(=O)N[C@@H](CC(N)=O)C(=O)N[C@@H](Cc3cccnc3)C(=O)N(C)CC(N)=O)CCOCC2)NC1=O` [compound 103] ({Hexanoyl(6-NMe3+)}-[Pen]NT[Trp(7-Me)]K(Ac)[Pen]Y(Me2NCH2CH2)[2Nal][Thp][Dap](Ac)N[3Pal][Sar]-NH2; disulfide 1-6 (inferred)) are 5.4 nM and 158 A^2.
The corresponding values for `CC(=O)NCCCC[C@@H]1NC(=O)[C@H](Cc2c[nH]c3c(C)cccc23)NC(=O)[C@H]([C@@H](C)O)NC(=O)[C@H](CC(N)=O)NC(=O)[C@@H](NC(C)=O)C(C)(C)SSC(C)(C)[C@@H](C(=O)N[C@@H](Cc2ccc(OCCCCC[N+](C)(C)C)cc2)C(=O)N[C@@H](Cc2ccc3ccccc3c2)C(=O)NC2(C(=O)N[C@@H](CCCCNC(=O)COc3ccc(-c4ccc(F)cc4F)cc3C(=O)O)C(=O)N[C@@H](CC(N)=O)C(=O)N[C@@H](Cc3cccnc3)C(=O)N(C)CC(N)=O)CCOCC2)NC1=O` [compound 526, MeCO-Pen(3)-N-T-7MeW-K(Ac)-Pen(3)-TMAPF-2Nal-THP-K(DFN)-N-3Pya-Sar-CONH2] are 6.1 nM and 184 A^2.
On to `COCCOCCOCCOCCOCCOCCC(=O)NCC[N+](C)(C)CC(=O)N[C@@H]1C(=O)N[C@@H](CC(=O)N(C)C)C(=O)N[C@@H]([C@@H](C)O)C(=O)N[C@@H](Cc2c[nH]c3c(C)cccc23)C(=O)N[C@@H](CCN(C)C(=O)CCOCCOCCOCCOCC[N+](C)(C)C)C(=O)N[C@H](C(=O)N[C@@H](Cc2ccc(OCCN)cc2)C(=O)N[C@@H](Cc2ccc3ccccc3c2)C(=O)NC2(C(=O)N[C@@H](CCC(=O)O)C(=O)N[C@@H](CC(N)=O)C(=O)N[C@@H](Cc3cccnc3)C(=O)N(C)CC(=O)N(C)C)CCOCC2)C(C)(C)SSC1(C)C` [compound 143, mPEG6CO-SP6-Pen(3)-N(N(Me)2)-T-7MeW-Dab(NMecPEG5a)-Pen(3)-AEF-2Nal-THP-E-N-3Pya-Sar-CON(Me)2] (X7-[X24][Pen]D(NMe2)T[Trp(7-Me)][X1](Me3N+CH2CH2(OCH2CH2)4CO)[Pen][AEF][2Nal][Thp]EN[3Pal][Sar]-NMe2; disulfide 2-7 (inferred)), for which the IC50 on IL-23R came out at 6.5 nM. In series [1], the EPSA was found to be 161 A^2.
The like results for `COCCOCCOCCOCCOCCOCCC(=O)N[C@@H]1C(=O)N[C@@H](CC(N)=O)C(=O)N[C@@H]([C@@H](C)O)C(=O)N[C@@H](Cc2c[nH]c3c(C)cccc23)C(=O)N[C@@H](CCCCNC(C)=O)C(=O)N[C@H](C(=O)N[C@@H](Cc2ccc(OCCN)cc2)C(=O)N[C@@H](Cc2ccc3ccccc3c2)C(=O)NC2(C(=O)N[C@@H](CCCCNC(C)=O)C(=O)N[C@@H](CC(N)=O)C(=O)N[C@@H](Cc3cccnc3)C(=O)N(C)CC(N)=O)CCOCC2)C(C)(C)SSC1(C)C` [compound 64] (X7-[Pen]NT[Trp(7-Me)]K(Ac)[Pen][AEF][2Nal][Thp]K(Ac)N[3Pal][Sar]-NH2; disulfide 1-6 (inferred)) were, in that order, 4.9 nM and 160 A^2.
